In brackets after ≈: the same amount, converted by molar mass. Where only a bound is given, the exact number is not on record here.

Data on 7 compounds can be found in patent publication US11034650B2, “Compounds useful for treating a Mannheimia haemolytica or Histophilus somni infection” (Intervet Inc., priority 2016, dated 2021).

Assay type in all cases: cell-based
Experiment [1] relates to Mannheimia haemolytica MH 6357 (M7/2, reference strain, cattle infection strain). Put plainly: MIC, broth-microdilution (CLSI VET01-A4), strain MH 6357. The note with it: Mannheimia haemolytica strain MH 6357, broth-microdilution; unit assumed. An outline of the steps:
(§1)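 Visual endpoint: the first dilution of a doubling series lacking turbidity gives the MIC; CLSI VET01-S3 interpretive rules applied.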
On the technique in general: Broth dilution looks for growth in wells or tubes with falling amounts of substance.

Experiment [2] deals with Mannheimia haemolytica MH 10720 (154, BRD field isolate). Put plainly: MIC, broth-microdilution (CLSI VET01-A4), strain MH 10720. The note with it: Mannheimia haemolytica strain MH 10720, broth-microdilution; unit assumed. The essentials: as §1
Experiment [3] has as its system Mannheimia haemolytica MH 13093 (XB0472-6014.1, BRD field isolate). Kind of experiment: MIC, broth-microdilution (CLSI VET01-A4), strain MH 13093. The note with it: Mannheimia haemolytica strain MH 13093, broth-microdilution; unit assumed. The essentials: as §1
For experiment [4], the system named is Pasteurella multocida PM 6267 (P 2225 (L386), reference strain, mouse infection strain). Put plainly: MIC, broth-microdilution (CLSI VET01-A4), strain PM 6267. The note with it: Pasteurella multocida strain PM 6267, broth-microdilution; unit assumed. An outline of the steps:
as §1

For experiment [5], the system named is Pasteurella multocida PM 10775 (080130003051, BRD field isolate). Put plainly: MIC, broth-microdilution (CLSI VET01-A4), strain PM 10775. The note with it: Pasteurella multocida strain PM 10775, broth-microdilution; unit assumed. An outline of the steps: as §1
Experiment [6] relates to Mannheimia haemolytica MH 6374 (ATCC 33396, reference strain). Put plainly: MIC, broth-microdilution (CLSI VET01-A4), strain MH 6374. The note with it: Mannheimia haemolytica strain MH 6374, broth-microdilution; unit assumed. The essentials:
as §1

Experiment [7] has as its system Mannheimia haemolytica MH 12587 (1071, BRD field isolate, macrolide-resistance: erm+, E+). Put plainly: MIC, broth-microdilution (CLSI VET01-A4), strain MH 12587. The note with it: Mannheimia haemolytica strain MH 12587, broth-microdilution; unit assumed. The essentials:
as §1

The subject of experiment [8] is Pasteurella multocida PM 12080 (IV102277-0093, BRD field isolate). Put plainly: MIC, broth-microdilution (CLSI VET01-A4), strain PM 12080. Conditions: Pasteurella multocida strain PM 12080, broth-microdilution; unit assumed. The essentials:
as §1

The test system of experiment [9] is Mannheimia haemolytica MH 13065 (XB0446-6003.9, BRD field isolate). Kind of experiment: MIC, broth-microdilution (CLSI VET01-A4), strain MH 13065. The note with it: Mannheimia haemolytica strain MH 13065, broth-microdilution; unit assumed. The essentials: as §1

Take `CC[C@H](C)[C@H](NC(=O)c1ccc(C#Cc2ccc(CNCC(C)(C)C)cc2)cc1)C(=O)NO` [Compound 114]: the MIC MH 6357 in experiment [1] stood at 6.3 µg/mL (≈ 14 µM). Besides, in experiment [2], the MIC MH 10720 was 1.6 µg/mL (≈ 3.56 µM). In addition, the MIC MH 13093 in experiment [3] was determined as 6.3 µg/mL (≈ 14 µM). The same compound had an MIC PM 6267 in experiment [4] of 0.2 µg/mL (≈ 0.445 µM). In addition, the MIC PM 10775 in experiment [5] is at most 0.1 µg/mL. This compound displayed an MIC MH 6374 in experiment [6] of 12.5 µg/mL (≈ 27.8 µM). In experiment [7], this compound showed an MIC MH 12587 of 12.5 µg/mL (≈ 27.8 µM). Besides, the MIC PM 12080 in experiment [8] worked out at 0.8 µg/mL (≈ 1.78 µM). In experiment [9], this compound yielded an MIC MH 13065 of 6.3 µg/mL (≈ 14 µM).
For `CC[C@H](C)[C@H](NC(=O)c1ccc(C#Cc2ccc(CNCCOC)cc2)cc1)C(=O)NO` [Compound 115], in [1], the MIC MH 6357 came to 6.3 µg/mL (≈ 14.4 µM). The compound also had an MIC MH 10720 in [2] of 0.8 µg/mL (≈ 1.83 µM). Besides, the MIC MH 13093 in experiment [3] amounted to 3.1 µg/mL (≈ 7.09 µM). The compound also came in with an MIC PM 6267 in experiment [4] of 0.4 µg/mL (≈ 0.914 µM). The same compound gave an MIC PM 10775 in experiment [5] of at most 0.1 µg/mL. The same compound showed an MIC MH 6374 in experiment [6] of 1.6 µg/mL (≈ 3.66 µM). The MIC MH 12587 in [7] came to 6.3 µg/mL (≈ 14.4 µM). In [8], the MIC PM 12080 amounted to 1.6 µg/mL (≈ 3.66 µM). Further, the MIC MH 13065 in [9] worked out at 3.1 µg/mL (≈ 7.09 µM).
As to `CC[C@H](C)[C@H](NC(=O)c1ccc(C#Cc2ccc(CNCCN(C)C)cc2)cc1)C(=O)NO` [Compound 116], the MIC MH 6357 in experiment [1] amounted to 25 µg/mL (≈ 55.5 µM). Further, the MIC MH 10720 in [2] is 3.1 µg/mL (≈ 6.88 µM). In [3], this compound gave an MIC MH 13093 of 25 µg/mL (≈ 55.5 µM). The compound further yielded an MIC PM 6267 in [4] of 0.8 µg/mL (≈ 1.78 µM). In experiment [5], the MIC PM 10775 was determined as 0.4 µg/mL (≈ 0.888 µM). This compound had an MIC MH 6374 in [6] of 25 µg/mL (≈ 55.5 µM). In experiment [7], this compound came in with an MIC MH 12587 of 1 µg/mL (≈ 2.22 µM). The compound further showed an MIC PM 12080 in experiment [8] of 3.1 µg/mL (≈ 6.88 µM). Further, the MIC MH 13065 in [9] came to 25 µg/mL (≈ 55.5 µM).
Compound `CC[C@H](C)[C@H](NC(=O)c1ccc(C#Cc2ccc(CN(CC)CC)cc2)cc1)C(=O)NO` [Compound 118] had an MIC MH 6357 in experiment [1] of 6.3 µg/mL (≈ 14.5 µM). In experiment [2], this compound displayed an MIC MH 10720 of 3.1 µg/mL (≈ 7.12 µM). This compound gave an MIC MH 13093 in experiment [3] of 12.5 µg/mL (≈ 28.7 µM). Besides, the MIC PM 6267 in experiment [4] was determined as 0.4 µg/mL (≈ 0.918 µM). This compound also yielded an MIC PM 10775 in [5] of 0.2 µg/mL (≈ 0.459 µM). In experiment [6], this compound yielded an MIC MH 6374 of 12.5 µg/mL (≈ 28.7 µM). In experiment [7], this compound had an MIC MH 12587 of 25 µg/mL (≈ 57.4 µM). In addition, in experiment [8], the MIC PM 12080 was 1.6 µg/mL (≈ 3.67 µM). Besides, in [9], the MIC MH 13065 came out at 12.5 µg/mL (≈ 28.7 µM).
On to `CC[C@H](C)[C@H](NC(=O)c1ccc(C#Cc2ccc(CN3CCOCC3)cc2)cc1)C(=O)NO` [Compound 119], for which the MIC MH 6357 in experiment [1] was 1.6 µg/mL (≈ 3.56 µM). This compound also displayed an MIC MH 10720 in [2] of 0.4 µg/mL (≈ 0.89 µM). The compound further gave an MIC MH 13093 in experiment [3] of 3.1 µg/mL (≈ 6.9 µM). In addition, the MIC PM 6267 in experiment [4] was at most 0.1 µg/mL. In [5], this compound showed an MIC PM 10775 of at most 0.1 µg/mL. This compound displayed an MIC MH 6374 in [6] of 1.6 µg/mL (≈ 3.56 µM). This compound displayed an MIC MH 12587 in [7] of 3.1 µg/mL (≈ 6.9 µM). The MIC PM 12080 in experiment [8] is at most 0.1 µg/mL. The compound also came in with an MIC MH 13065 in [9] of 1.6 µg/mL (≈ 3.56 µM).
In experiment [1], `CC[C@H](C)[C@H](NC(=O)c1ccc(C#Cc2ccc(CN3CCc4ccccc4C3)cc2)cc1)C(=O)NO` [Compound 124] had an MIC MH 6357 of 6.3 µg/mL (≈ 12.7 µM). The compound further registered an MIC MH 10720 in experiment [2] of 3.1 µg/mL (≈ 6.25 µM). Further, the MIC MH 13093 in [3] turned out to be 12.5 µg/mL (≈ 25.2 µM). The compound also returned an MIC PM 6267 in experiment [4] of 3.1 µg/mL (≈ 6.25 µM). For the same compound, the MIC PM 10775 in experiment [5] came to 0.8 µg/mL (≈ 1.61 µM). The compound also had an MIC MH 6374 in experiment [6] of 12.5 µg/mL (≈ 25.2 µM). In experiment [7], this compound registered an MIC MH 12587 of 25 µg/mL (≈ 50.4 µM). Besides, the MIC PM 12080 in [8] came out at 3.1 µg/mL (≈ 6.25 µM). The same compound came in with an MIC MH 13065 in experiment [9] of 12.5 µg/mL (≈ 25.2 µM).
In experiment [1], `CC[C@H](C)[C@H](NC(=O)c1ccc(C#Cc2ccc(CNCc3ccccc3)cc2)cc1)C(=O)NO` [Compound 126] gave an MIC MH 6357 of 3.1 µg/mL (≈ 6.6 µM). Besides, the MIC MH 10720 in experiment [2] amounted to 0.4 µg/mL (≈ 0.852 µM). The same compound gave an MIC MH 13093 in [3] of 1.6 µg/mL (≈ 3.41 µM). The compound further yielded an MIC PM 6267 in [4] of 0.4 µg/mL (≈ 0.852 µM). Further, in [5], the MIC PM 10775 is at most 0.1 µg/mL. The MIC MH 6374 in experiment [6] stood at 1.6 µg/mL (≈ 3.41 µM). The compound also displayed an MIC MH 12587 in experiment [7] of 1.6 µg/mL (≈ 3.41 µM). For the same compound, the MIC PM 12080 in experiment [8] stood at 0.8 µg/mL (≈ 1.7 µM). In addition, the MIC MH 13065 in experiment [9] worked out at 1.6 µg/mL (≈ 3.41 µM).
